In patent publication US9096560B2, “5-heterocyclylalkyl-3-hydroxy-2-phenylcyclopent-2-enones as herbicides” (Syngenta Limited, priority 2008, dated 2015):

Experiments:
Type in all cases: in vivo
Lolium perenne (LOLPE) [1] = experiment: Example B pre-emergence herbicidal test, LOLPE; details: Lolium perenne, 312 h, rate 250 g/ha, evaluated after 13 days, 100=total damage to plant, 0=no damage to plant
How it was run: (§1)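 Pots sown, sprayed day 1 pre-emergence; spray: aqueous dilution of formulation in acetone/water 50:50 + 0.5% Tween 20. Glasshouse 24/16° C, 14 h light, 65% RH, watering twice daily. Visual damage rating at 13 d, 0–100 scale.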

Lolium perenne (LOLPE) [2] = experiment: Example B post-emergence herbicidal test, LOLPE; details: Lolium perenne, 312 h, rate 250 g/ha, evaluated after 13 days, scale 0-100, read-out: Post-emergence activity LOLPE (100=total damage to plant; 0=no damage to plant)
How it was run: (§2)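 Damage was rated visually 13 days after treatment, where 100 meant total plant damage and 0 none. Treatment was a spray of aqueous solution (acetone/water 50:50, 0.5% Tween 20) applied to plants cultivated 8 days from seed under controlled glasshouse conditions.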

[3] = system: Alopecurus myosuroides (ALOMY); experiment: Example B pre-emergence herbicidal test, ALOMY; details: Alopecurus myosuroides, 312 h, rate 250 g/ha, evaluated after 13 days, 100=total damage to plant, 0=no damage to plant
How it was run: as §1

Avena fatua (AVEFA) [4] = experiment: Example B pre-emergence herbicidal test, AVEFA; details: Avena fatua, 312 h, rate 250 g/ha, evaluated after 13 days, 100=total damage to plant, 0=no damage to plant
How it was run: as §1

Avena fatua (AVEFA) [5] = experiment: Example B post-emergence herbicidal test, AVEFA; details: Avena fatua, 312 h, rate 250 g/ha, evaluated after 13 days, scale 0-100, read-out: Post-emergence activity AVEFA (100=total damage to plant; 0=no damage to plant)
How it was run: as §2

[6] = system: Echinochloa crus-galli (ECHCG); experiment: Example B pre-emergence herbicidal test, ECHCG; details: Echinochloa crus-galli, 312 h, rate 250 g/ha, evaluated after 13 days, 100=total damage to plant, 0=no damage to plant
How it was run: as §1

[7] = system: Echinochloa crus-galli (ECHCG); experiment: Example B post-emergence herbicidal test, ECHCG; details: Echinochloa crus-galli, 312 h, rate 250 g/ha, evaluated after 13 days, scale 0-100, read-out: Post-emergence activity ECHCG (100=total damage to plant; 0=no damage to plant)
How it was run: as §2

[8] = system: Alopecurus myosuroides (ALOMY); experiment: Example B post-emergence herbicidal test, ALOMY; details: Alopecurus myosuroides, 312 h, rate 250 g/ha, evaluated after 13 days, scale 0-100, read-out: Post-emergence activity ALOMY (100=total damage to plant; 0=no damage to plant)
How it was run: as §2

SMILES	pest or weed control at 250 g/ha (Lolium perenne (LOLPE) [1])	pest or weed control at 250 g/ha (Lolium perenne (LOLPE) [2])	pest or weed control at 250 g/ha [3]	pest or weed control at 250 g/ha (Avena fatua (AVEFA) [4])	pest or weed control at 250 g/ha (Avena fatua (AVEFA) [5])	pest or weed control at 250 g/ha [6]	pest or weed control at 250 g/ha [7]	pest or weed control at 250 g/ha [8]
CCCCS(=O)(=O)N1CCC(CC2CC(=O)C(c3c(C)cc(C)cc3C)C2=O)CC1 (stereo not drawn) [Compound T96]	60%	60%	20%	10%	40%	20%	40%	60%
COc1ccc(C(=O)N2CCC(CC3CC(=O)C(c4c(C)cc(C)cc4C)C3=O)CC2)cc1 (stereo not drawn) [Compound T97]	70%	60%	30%	30%	70%	60%	80%	70%
Cc1cc(C)c(C2C(=O)CC(CC3CCN(C(=O)c4ccc(C(F)(F)F)cc4)CC3)C2=O)c(C)c1 (stereo not drawn) [Compound T99]	60%	50%	20%	30%	90%	60%	90%	70%
Cc1cc(C)c(C2C(=O)CC(CC3CCN(C(=O)N4CCOCC4)CC3)C2=O)c(C)c1 (stereo not drawn) [Compound T100]	90%	80%	60%	60%	90%	70%	60%	90%
C=CCOC(=O)N1CCC(CC2CC(=O)C(c3c(C)cc(C)cc3C)C2=O)CC1 (stereo not drawn) [Compound T101]	50%	40%	20%	30%	40%	50%	20%	40%
C=COC(=O)N1CCC(CC2CC(=O)C(c3c(C)cc(C)cc3C)C2=O)CC1 (stereo not drawn) [Compound T102]	70%	80%	50%	30%	90%	50%	40%	90%
Cc1cc(C)c(C2C(=O)CC(CC3CCN(C(=O)OCCCl)CC3)C2=O)c(C)c1 (stereo not drawn) [Compound T103]	30%	50%	30%	20%	60%	10%	30%	50%
CC(C)=CC(=O)N1CCC(CC2CC(=O)C(c3c(C)cc(C)cc3C)C2=O)CC1 (stereo not drawn) [Compound T104]	70%	80%	60%	60%	90%	90%	70%	70%
Cc1cc(C)c(C2C(=O)CC(CC3CCN(C(=O)C(Cl)(Cl)Cl)CC3)C2=O)c(C)c1 (stereo not drawn) [Compound T105]	60%	50%	20%	30%	40%	40%	30%	30%
Cc1cc(C)c(C2C(=O)CC(CC3CCN(C(=O)c4cc(F)c(Cl)nc4Cl)CC3)C2=O)c(C)c1 (stereo not drawn) [Compound T106]	20%	30%	20%	30%	10%	20%	30%	40%
Cc1cc(C)c(C2C(=O)CC(CC3CCN(C(=O)OC(C)C)CC3)C2=O)c(C)c1 (stereo not drawn) [Compound T107]	70%	90%	80%	60%	90%	70%	60%	70%
CCOC(=O)N1CCC(CC2CC(=O)C(c3c(C)cc(C)cc3C)C2=O)CC1 (stereo not drawn) [Compound T108]	50%	70%	10%	40%	70%	60%	40%	70%
Cc1cc(C)c(C2C(=O)CC(CC3CCN(C(=O)c4cccs4)CC3)C2=O)c(C)c1 (stereo not drawn) [Compound T110]	50%	50%	30%	30%	80%	70%	40%	30%
Cc1cc(C)c(C2C(=O)CC(CC3CCN(S(=O)(=O)C(F)(F)F)CC3)C2=O)c(C)c1 (stereo not drawn) [Compound T112]	50%	30%	40%	20%	30%	30%	30%	40%
Cc1cc(C)c(C2C(=O)CC(CC3CCN(C(=O)CC(C)C)CC3)C2=O)c(C)c1 (stereo not drawn) [Compound T113]	70%	100%	60%	70%	100%	90%	70%	90%
Cc1cc(C)c(C2C(=O)CC(CC3CCN(C(=O)C4CCCC4)CC3)C2=O)c(C)c1 (stereo not drawn) [Compound T114]	40%	50%	50%	20%	40%	60%	30%	40%
Cc1cc(C)c(C2C(=O)CC(CC3CCN(C(=O)c4c(C)noc4C)CC3)C2=O)c(C)c1 (stereo not drawn) [Compound T118]	40%	30%	40%	20%	80%	30%	40%	60%
Cc1cc(C)c(C2C(=O)CC(CC3CCN(C(=O)c4cc(C)on4)CC3)C2=O)c(C)c1 (stereo not drawn) [Compound T119]	80%	90%	40%	30%	80%	100%	90%	90%
Cc1cc(C)c(C2C(=O)CC(CC3CCN(C(=O)N4CCCCC4)CC3)C2=O)c(C)c1 (stereo not drawn) [Compound T120]	20%	30%	30%	10%	20%	30%	10%	30%
Cc1cc(C)c(C2C(=O)CC(CC3CCN(C(=O)c4cc(C)nn4C)CC3)C2=O)c(C)c1 (stereo not drawn) [Compound T121]	80%	90%	30%	60%	100%	90%	80%	80%
Cc1cccc(C(=O)N2CCC(CC3CC(=O)C(c4c(C)cc(C)cc4C)C3=O)CC2)c1 (stereo not drawn) [Compound T122]	50%	80%	20%	20%	30%	70%	70%	60%
